The supplement of paper PMC10307832

Tests used:
Experiment in all cases: relative viability (nuclei count vs DMSO), 5 days (fraction); higher = more cells survive
NCI-H1755 = system: NCI-H1755
In short: (§1)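 Nuclei were stained with Hoechst during a one-step fixation (final 0.05% Triton X-100, 1% formaldehyde, 1 ug/ml Hoechst) carried out 5 days after dosing, then counted on 4× images. The cells, lung cancer lines in 1536-well plates, had been dosed by pin tool the day after seeding with one drug alone or a fixed anchor-drug dose plus five library-drug doses (not always all listed) in √10 steps. Relative viability is the nuclei count in treated wells divided by that in vehicle wells, and each value is the median of duplicate plates.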

LU99A = system: LU99A
In short: as §1

NCI-H1437 = system: NCI-H1437
In short: as §1

NCI-H2085 = system: NCI-H2085
In short: as §1

NCI-H1666 = system: NCI-H1666
In short: as §1

NCI-H1650 = system: NCI-H1650
In short: as §1

NCI-H1651 = system: NCI-H1651
In short: as §1

COR-L23 = system: COR-L23
In short: as §1

NCI-H1792 = system: NCI-H1792
In short: as §1

NCI-H1355 = system: NCI-H1355
In short: as §1

BEN = system: BEN
In short: as §1

HCC-44 = system: HCC-44
In short: as §1

NCI-H1563 = system: NCI-H1563
In short: as §1

LXF-289 = system: LXF-289
In short: as §1

NCI-H1993 = system: NCI-H1993
In short: as §1

NCI-H2087 = system: NCI-H2087
In short: as §1

NCI-H520 = system: NCI-H520
In short: as §1

CAL-12T = system: CAL-12T
In short: as §1

PC-14 = system: PC-14
In short: as §1

NCI-H460 = system: NCI-H460
In short: as §1

SK-MES-1 = system: SK-MES-1
In short: as §1

NCI-H2170 = system: NCI-H2170
In short: as §1

CN1CCN(CCOc2cc(OC3CCOCC3)c3c(Nc4c(Cl)ccc5c4OCO5)ncnc3c2)CC1 [Saracatinib] + CS(=O)(=O)N1CCN(Cc2cc3nc(-c4cccc5[nH]ncc45)nc(N4CCOCC4)c3s2)CC1 [Pictilisib] (partner 1 µM)
relative viability (NCI-H1755; first compound 0.02 µM): 0.424
relative viability (NCI-H1755; first compound 0.2 µM): 0.408
relative viability (NCI-H1755; first compound 0.6325 µM): 0.431
relative viability (NCI-H1755; first compound 2 µM): 0.26
relative viability (LU99A; first compound 0.02 µM): 0.334
relative viability (LU99A; first compound 0.2 µM): 0.259
relative viability (LU99A; first compound 0.6325 µM): 0.309
relative viability (LU99A; first compound 2 µM): 0.299
relative viability (NCI-H1437; first compound 0.02 µM): 0.416
relative viability (NCI-H1437; first compound 0.2 µM): 0.418
relative viability (NCI-H1437; first compound 0.6325 µM): 0.454
relative viability (NCI-H1437; first compound 2 µM): 0.393
relative viability (NCI-H2085; first compound 0.02 µM): 0.474
relative viability (NCI-H2085; first compound 0.2 µM): 0.345
relative viability (NCI-H2085; first compound 0.6325 µM): 0.481
relative viability (NCI-H2085; first compound 2 µM): 0.377
relative viability (NCI-H1666; first compound 0.02 µM): 0.493
relative viability (NCI-H1666; first compound 0.2 µM): 0.413
relative viability (NCI-H1666; first compound 0.6325 µM): 0.563
relative viability (NCI-H1666; first compound 2 µM): 0.469
relative viability (NCI-H1650; first compound 0.02 µM): 0.626
relative viability (NCI-H1650; first compound 0.2 µM): 0.468
relative viability (NCI-H1650; first compound 0.6325 µM): 0.377
relative viability (NCI-H1650; first compound 2 µM): 0.314
relative viability (NCI-H1651; first compound 0.02 µM): 0.507
relative viability (NCI-H1651; first compound 0.2 µM): 0.499
relative viability (NCI-H1651; first compound 0.6325 µM): 0.563
relative viability (NCI-H1651; first compound 2 µM): 0.5
relative viability (COR-L23; first compound 0.02 µM): 0.721
relative viability (COR-L23; first compound 0.2 µM): 0.568
relative viability (COR-L23; first compound 0.6325 µM): 0.75
relative viability (COR-L23; first compound 2 µM): 0.675
relative viability (NCI-H1792; first compound 0.02 µM): 0.293
relative viability (NCI-H1792; first compound 0.2 µM): 0.239
relative viability (NCI-H1792; first compound 0.6325 µM): 0.302
relative viability (NCI-H1792; first compound 2 µM): 0.263
relative viability (NCI-H1355; first compound 0.02 µM): 0.497
relative viability (NCI-H1355; first compound 0.2 µM): 0.467
relative viability (NCI-H1355; first compound 0.6325 µM): 0.516
relative viability (NCI-H1355; first compound 2 µM): 0.461
relative viability (BEN; first compound 0.02 µM): 0.57
relative viability (BEN; first compound 0.2 µM): 0.56
relative viability (BEN; first compound 0.6325 µM): 0.573
relative viability (BEN; first compound 2 µM): 0.427
relative viability (HCC-44; first compound 0.02 µM): 0.527
relative viability (HCC-44; first compound 0.2 µM): 0.598
relative viability (HCC-44; first compound 0.6325 µM): 0.854
relative viability (HCC-44; first compound 2 µM): 0.442
relative viability (NCI-H1563; first compound 0.02 µM): 0.618
relative viability (NCI-H1563; first compound 0.2 µM): 0.609
relative viability (NCI-H1563; first compound 0.6325 µM): 0.63
relative viability (NCI-H1563; first compound 2 µM): 0.606
relative viability (LXF-289; first compound 0.02 µM): 0.715
relative viability (LXF-289; first compound 0.2 µM): 0.731
relative viability (LXF-289; first compound 0.6325 µM): 0.8
relative viability (LXF-289; first compound 2 µM): 0.472
relative viability (NCI-H1993; first compound 0.02 µM): 0.655
relative viability (NCI-H1993; first compound 0.2 µM): 0.969
relative viability (NCI-H1993; first compound 2 µM): 0.652
relative viability (NCI-H2087; first compound 0.02 µM): 0.963
relative viability (NCI-H2087; first compound 0.2 µM): 0.567
relative viability (NCI-H2087; first compound 0.6325 µM): 1.06
relative viability (NCI-H2087; first compound 2 µM): 0.967
relative viability (NCI-H520; first compound 0.02 µM): 0.321
relative viability (NCI-H520; first compound 0.2 µM): 0.263
relative viability (NCI-H520; first compound 0.6325 µM): 0.273
relative viability (NCI-H520; first compound 2 µM): 0.228
relative viability (CAL-12T; first compound 0.02 µM): 0.428
relative viability (CAL-12T; first compound 0.2 µM): 0.399
relative viability (CAL-12T; first compound 0.6325 µM): 0.491
relative viability (CAL-12T; first compound 2 µM): 0.255
relative viability (PC-14; first compound 0.02 µM): 0.593
relative viability (PC-14; first compound 0.2 µM): 0.337
relative viability (PC-14; first compound 0.6325 µM): 0.0893
relative viability (PC-14; first compound 2 µM): 0.0627
relative viability (NCI-H460; first compound 0.02 µM): 0.367
relative viability (NCI-H460; first compound 0.6325 µM): 0.242
relative viability (NCI-H460; first compound 2 µM): 0.286
relative viability (SK-MES-1; first compound 0.02 µM): 0.375
relative viability (SK-MES-1; first compound 0.2 µM): 0.256
relative viability (SK-MES-1; first compound 0.6325 µM): 0.267
relative viability (SK-MES-1; first compound 2 µM): 0.183
relative viability (NCI-H2170; first compound 0.02 µM): 0.355
relative viability (NCI-H2170; first compound 0.2 µM): 0.233
relative viability (NCI-H2170; first compound 0.6325 µM): 0.234
relative viability (NCI-H2170; first compound 2 µM): 0.208
